Literature values in paper PMC12559310, “Tumor-targeted top1 inhibitor delivery with optimized parp inhibition in advanced solid tumors: a phase i trial of gapped scheduling” (Nature Communications, 2025).
Read-outs that look alike come from different tables or passages of the source.

Experiments:
SCLC cell lines = system: SCLC cell lines; design: method as in protocol [5]; settings: pre-clinical models of SCLC; ref protocol [5]; cited from earlier work
[1] = system: patients with solid tumors; settings: cited from earlier work

## CNCc1ccc(-c2[nH]c3cc(F)cc4c3c2CCNC4=O)cc1 [rucaparib]
SCLC cell lines
  single agent activity: striking single agent activity in a majority of SCLC cell lines tested

## C[C@]1(c2nc3c(C(N)=O)cccc3[nH]2)CCCN1 [veliparib]
[1]; Veliparib 50 mg BID with Liposomal Irinotecan 70 mg/m2 q2w, ref LaRose, Oncologist, 2023
  PARPi % of MTD: 13%
[1]; Veliparib 300 mg bid with Topotecan 3 mg/m2 d2,9,16, ref Hendrickson, Clin Can Res, 2017
  PARPi % of MTD: 75%
[1]; Veliparib 10 bid d1-5 with Topotecan 0.6 mg/m2/d1-5, % of single-agent MTD, ref Kummar, Can Res, 2011
  PARPi % of MTD: 3%
[1]; Veliparib 10 bid d1-5 with Topotecan 0.6 mg/m2/d1-5, % of single-agent MTD, ref Kummar, Can Res, 2011, listed as Veliparib
  PARPi % of MTD: ≈ 3%
[1]; Veliparib 40 bid d1-14 with Irinotecan 100 mg/m2, ref LoRusso, Clin Can Res, 2016
  PARPi % of MTD: 10%

## CC[C@@]1(O)C(=O)OCc2c1cc1n(c2=O)Cc2cc3c(CN(C)C)c(O)ccc3nc2-1 [topotecan]
[1]; Topotecan 0.6 mg/m2/d1-5 with Veliparib 10 bid d1-5, % of single-agent MTD, ref Kummar, Can Res, 2011
  Topo1i % of MTD: 40%
[1]; Topotecan 1 mg/m2/d1-3 with Olaparib 100 mg bid d1-21, ref Samol, Inv New Drugs, 2012
  Topo1i % of MTD: 40%
[1]; Topotecan 3 mg/m2 d2,9,16 with Veliparib 300 mg bid, ref Hendrickson, Clin Can Res, 2017
  Topo1i % of MTD: 75%

## CCc1c2c(nc3ccc(OC(=O)N4CCC(N5CCCCC5)CC4)cc13)-c1cc3c(c(=O)n1C2)COC(=O)[C@]3(O)CC [Irinotecan]
[1]; Irinotecan 100 mg/m2 with Veliparib 40 bid d1-14, ref LoRusso, Clin Can Res, 2016
  Topo1i % of MTD: 80%
[1]; Irinotecan 125 mg/m2 q2w with Olaparib 50 mg bid d1-5, ref Chen, Inv New Drugs, 2016
  Topo1i % of MTD: 69%
[1]; Irinotecan 200 mg/m2 q3w with Olaparib 50 mg qd d1-21, ref Chen, Inv New Drugs, 2016
  Topo1i % of MTD: 57%
